Columns and labels:
in vitro = assay type: cell-based, human; conditions: human, differentiated hl-60 cells, 300 μmol/L, about 24 hours, PMA-differentiated HL-60 cells, LDH; no-treatment 0%, cell lysis buffer 100%; read-out: cytotoxicity (%) Evaluation compound results
Summary of the method: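 Cytotoxicity (%) from supernatant LDH activity after ~24 h treatment at 300 μmol/L final, normalised to no-treatment (0%) and lysis buffer (100%). Cells were PMA-differentiated (10 nM, ~72 h) HL-60 in 2% FBS medium; triplicate means.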

[1] = Study for confirmation of conversion to brexpiprazole in a buffer (stability of the evaluation compounds); assay type: physicochemical; conditions: in buffer, average of duplicate; for Concentration of brexpiprazole formed: 60-minute reaction sample; for Concentration of evaluation compound decreased: decrease in 60-minute vs 0-minute reaction sample
Summary of the method: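 Compounds (final 1 μmol/L, from 100 μmol/L working solutions) incubated in buffer at 37° C. for 0 or 60 min, in duplicate, after 3 min pre-incubation of the reaction solution. Reactions stopped with acetonitrile/isopropanol (4:1) containing internal standards; compound and formed brexpiprazole quantified against 0.01–1 μmol/L calibration samples.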

For COCCCOC(=O)OCOP(=O)([O-])OC[N+]1(CCCCOc2ccc3ccc(=O)[nH]c3c2)CCN(c2cccc3sccc23)CC1 [EX 139, (4-(benzo[b]thiophen-4-yl)-1-(4-((2-oxo-1,2-dihydroquinolin-7-yl)oxy)butyl)piperazin-1-ium-1-yl)methyl ((((3-methoxypropoxy)carbonyl)oxy)methyl) phosphate], which cytotoxicity at 24 h, 300 µM (in vitro) is on record?
Its cytotoxicity at 24 h, 300 µM is -4%.

And the “Concentration of brexpiprazole formed” value [1]?
The value was 0 nM.

And the “Concentration of evaluation compound decreased” value [1]?
Its value is 120 nM.

Which results are given for COCCCOP(=O)([O-])OC[N+]1(CCCCOc2ccc3ccc(=O)[nH]c3c2)CCN(c2cccc3sccc23)CC1 [EX 49, (4-(benzo[b]thiophen-4-yl)-1-(4-((2-oxo-1,2-dihydroquinolin-7-yl)oxy)butyl)piperazin-1-ium-1-yl)methyl (3-methoxypropyl) phosphate]?
cytotoxicity at 24 h, 300 µM (in vitro): -7%; Concentration of brexpiprazole formed [1]: 0 nM; Concentration of evaluation compound decreased [1]: 50 nM

Which cytotoxicity at 24 h, 300 µM (in vitro) does the source give for CCOCCOCCOP(=O)([O-])OC[N+]1(CCCCOc2ccc3ccc(=O)[nH]c3c2)CCN(c2cccc3sccc23)CC1 [EX 98, (4-(benzo[b]thiophen-4-yl)-1-(4-((2-oxo-1,2-dihydroquinolin-7-yl)oxy)butyl)piperazin-1-ium-1-yl)methyl (2-(2-ethoxyethoxy)ethyl) phosphate] here?
The cytotoxicity at 24 h, 300 µM was -8%.

What about the “Concentration of brexpiprazole formed” value [1] of the same compound?
The value was 0 nM.

And the “Concentration of evaluation compound decreased” value [1]?
Its value is -20 nM.

What does the source list for CN1CCN(CCOP(=O)([O-])OC[N+]2(CCCCOc3ccc4ccc(=O)[nH]c4c3)CCN(c3cccc4sccc34)CC2)CC1 [EX 117, (4-(benzo[b]thiophen-4-yl)-1-(4-((2-oxo-1,2-dihydroquinolin-7-yl)oxy)butyl)piperazin-1-ium-1-yl)methyl (2-(4-methylpiperazin-1-yl)ethyl) phosphate]?
cytotoxicity at 24 h, 300 µM (in vitro): -7%; Concentration of brexpiprazole formed [1]: 0 nM; Concentration of evaluation compound decreased [1]: 50 nM

Which results are given for O=c1ccc2ccc(OCCCC[N+]3(COP(=O)([O-])OCCCCCCCO)CCN(c4cccc5sccc45)CC3)cc2[nH]1 [EX 45, (4-(benzo[b]thiophen-4-yl)-1-(4-((2-oxo-1,2-dihydroquinolin-7-yl)oxy)butyl)piperazin-1-ium-1-yl)methyl (7-hydroxyheptyl) phosphate]?
cytotoxicity at 24 h, 300 µM (in vitro): 3%; Concentration of brexpiprazole formed [1]: 0 nM; Concentration of evaluation compound decreased [1]: 70 nM

With O=C(OCCCOC1CCCCO1)OCOP(=O)([O-])OC[N+]1(CCCCOc2ccc3ccc(=O)[nH]c3c2)CCN(c2cccc3sccc23)CC1 (stereo not drawn) [EX 140, (4-(benzo[b]thiophen-4-yl)-1-(4-((2-oxo-1,2-dihydroquinolin-7-yl)oxy)butyl)piperazin-1-ium-1-yl)methyl ((((3-((tetrahydro-2H-pyran-2-yl)oxy)propoxy)carbonyl)oxy)methyl) phosphate] as the compound, how does the cytotoxicity at 24 h, 300 µM (in vitro) read?
Its cytotoxicity at 24 h, 300 µM is 9%.

What about the “Concentration of brexpiprazole formed” value [1] of the same compound?
The value was 0 nM.

What about the “Concentration of evaluation compound decreased” value [1] of the same compound?
Its value is -20 nM.

Which cytotoxicity at 24 h, 300 µM (in vitro) does the source give for CCCC(C)(C)C(=O)OCOP(=O)([O-])OC[N+]1(CCCCOc2ccc3ccc(=O)[nH]c3c2)CCN(c2cccc3sccc23)CC1 [EX 123, (4-(benzo[b]thiophen-4-yl)-1-(4-((2-oxo-1.2-dihydroquinolin-7-yl)oxy)butyl)piperazin-1-ium-1-yl)methyl (((2,2-dimethylpentanoyl)oxy)methyl) phosphate] here?
Its cytotoxicity at 24 h, 300 µM is -8%.

And the “Concentration of brexpiprazole formed” value [1]?
Its value is 0 nM.

And the “Concentration of evaluation compound decreased” value [1]?
The value was -110 nM.

Which results are given for CCOC(=O)[C@@H](C)OP(=O)([O-])OC[N+]1(CCCCOc2ccc3ccc(=O)[nH]c3c2)CCN(c2cccc3sccc23)CC1 [EX 103, (R)-(4-(benzo[b]thiophen-4-yl)-1-(4-((2-oxo-1,2-dihydroquinolin-7-yl)oxy)butyl)piperazin-1-ium-1-yl)methyl(1-ethoxy-1-oxopropan-2-yl) phosphate]?
cytotoxicity at 24 h, 300 µM (in vitro): 3%; Concentration of brexpiprazole formed [1]: 0 nM; Concentration of evaluation compound decreased [1]: -10 nM

With CC(C)OC(=O)OCOP(=O)([O-])OC[N+]1(CCCCOc2ccc3ccc(=O)[nH]c3c2)CCN(c2cccc3sccc23)CC1 [EX 130, (4-(benzo[b]thiophen-4-yl)-1-(4-((2-oxo-1,2-dihydroquinolin-7-yl)oxy)butyl)piperazin-1-ium-1-yl)methyl (isopropoxycarbonyl)oxy)methyl) phosphate] as the compound, how does the cytotoxicity at 24 h, 300 µM (in vitro) read?
Its cytotoxicity at 24 h, 300 µM is 1%.

What about the “Concentration of brexpiprazole formed” value [1] of the same compound?
Its value is 0 nM.

What about the “Concentration of evaluation compound decreased” value [1] of the same compound?
The value was -20 nM.

For C[C@@H](OP(=O)([O-])OC[N+]1(CCCCOc2ccc3ccc(=O)[nH]c3c2)CCN(c2cccc3sccc23)CC1)C(=O)OC(C)(C)C [EX 106, (R)-(4-(benzo[b]thiophen-4-yl)-1-(4-((2-oxo-1.2-dihydroquinolin-7-yl)oxy)butyl)piperazin-1-ium-1-yl)methyl (1-(tert-butoxy)-1-oxopropan-2-yl) phosphate], which cytotoxicity at 24 h, 300 µM (in vitro) is on record?
The cytotoxicity at 24 h, 300 µM was 10%.

And the “Concentration of brexpiprazole formed” value [1]?
Its value is 0 nM.

What about the “Concentration of evaluation compound decreased” value [1] of the same compound?
Its value is 70 nM.

With CC(C)(C)C(=O)OP(=O)([O-])OC[N+]1(CCCCOc2ccc3ccc(=O)[nH]c3c2)CCN(c2cccc3sccc23)CC1 [EX 150, (4-(benzothiophen-4-yl)-1-(4-((2-oxo-1H-quinolin-7-yl)oxy)butyl)piperazin-1-ium-1-yl)methyl 2,2-dimethylpropanoyl phosphate] as the compound, how does the cytotoxicity at 24 h, 300 µM (in vitro) read?
The cytotoxicity at 24 h, 300 µM was 10%.

What about the “Concentration of brexpiprazole formed” value [1] of the same compound?
The value was 0 nM.

What about the “Concentration of evaluation compound decreased” value [1] of the same compound?
The value was 110 nM.

Which cytotoxicity at 24 h, 300 µM (in vitro) does the source give for CCOC(=O)CC(C)(C)CC(=O)OCOP(=O)([O-])OC[N+]1(CCCCOc2ccc3ccc(=O)[nH]c3c2)CCN(c2cccc3sccc23)CC1 [EX 32, (4-(benzo[b]thiophen-4-yl)-1-(4-((2-oxo-1,2-dihydroquinolin-7-yl)oxy)butyl)piperazin-1-ium-1-yl)methyl (((5-ethoxy-3,3-dimethyl-5-oxopentanoyl)oxy)methyl) phosphate] here?
The cytotoxicity at 24 h, 300 µM was 5%.

What about the “Concentration of brexpiprazole formed” value [1] of the same compound?
The value was 0 nM.

And the “Concentration of evaluation compound decreased” value [1]?
Its value is 10 nM.

Which cytotoxicity at 24 h, 300 µM (in vitro) does the source give for CC1(C)OCC(NC(=O)CCCC(=O)OCOP(=O)([O-])OC[N+]2(CCCCOc3ccc4ccc(=O)[nH]c4c3)CCN(c3cccc4sccc34)CC2)CO1 [EX 74, (4-(benzo[b]thiophen-4-yl)-1-(4-((2-oxo-1,2-dihydroquinolin-7-yl)oxy)butyl)piperazin-1-ium-1-yl)methyl (((5-((2.2-dimethyl-1,3-dioxan-5-yl)amino)-5-oxopentanoyl)oxy)methyl) phosphate] here?
Its cytotoxicity at 24 h, 300 µM is -1%.

What about the “Concentration of brexpiprazole formed” value [1] of the same compound?
Its value is 0 nM.

What about the “Concentration of evaluation compound decreased” value [1] of the same compound?
The value was 50 nM.

Which cytotoxicity at 24 h, 300 µM (in vitro) does the source give for CCOC(=O)[C@H](C)NP(=O)([O-])OC[N+]1(CCCCOc2ccc3ccc(=O)[nH]c3c2)CCN(c2cccc3sccc23)CC1 [EX 156, (4-(benzo[b]thiophen-4-yl)-1-(4-((2-oxo-1,2-dihydroquinolin-7-yl)oxy)butyl)piperazin-1-ium-1-yl)methyl (S)-(1-ethoxy-1-oxopropan-2-yl)phosphoramidate] here?
Its cytotoxicity at 24 h, 300 µM is -9%.

And the “Concentration of brexpiprazole formed” value [1]?
Its value is 0 nM.

And the “Concentration of evaluation compound decreased” value [1]?
Its value is 170 nM.

Which cytotoxicity at 24 h, 300 µM (in vitro) does the source give for O=c1ccc2ccc(OCCCC[N+]3(COP(=O)([O-])O)CCN(c4cccc5sccc45)CC3)cc2[nH]1 [EX 2, (4-(benzo[b]thiophen-4-yl)-1-((4-((2-oxo-1,2-dihydroquinolin-7-yl)oxy)butyl)piperazin-1-ium-1-yl)methyl hydrogen phosphate] here?
The cytotoxicity at 24 h, 300 µM was -7%.

What about the “Concentration of brexpiprazole formed” value [1] of the same compound?
Its value is 0 nM.

What about the “Concentration of evaluation compound decreased” value [1] of the same compound?
The value was 0 nM.

With COCC(COC)OP(=O)([O-])OC[N+]1(CCCCOc2ccc3ccc(=O)[nH]c3c2)CCN(c2cccc3sccc23)CC1 [EX 56, (4-(benzo[b]thiophen-4-yl)-1-(4-((2-oxo-1,2-dihydroquinolin-7-yl)oxy)butyl)piperazin-1-ium-1-yl)methyl (1,3-dimethoxypropan-2-yl) phosphate] as the compound, how does the cytotoxicity at 24 h, 300 µM (in vitro) read?
Its cytotoxicity at 24 h, 300 µM is -6%.

What about the “Concentration of brexpiprazole formed” value [1] of the same compound?
The value was 0 nM.

What about the “Concentration of evaluation compound decreased” value [1] of the same compound?
The value was 40 nM.

For CC(C)OC(=O)[C@@H](C)OP(=O)([O-])OC[N+]1(CCCCOc2ccc3ccc(=O)[nH]c3c2)CCN(c2cccc3sccc23)CC1 [EX 105, (R)-(4-(benzo[b]thiophen-4-yl)-1-(4-((2-oxo-1,2-dihydroquinolin-7-yl)oxy)butyl)piperazin-1-ium-1-yl)methyl (1-isopropoxy-1-oxopropan-2-yl) phosphate], which cytotoxicity at 24 h, 300 µM (in vitro) is on record?
Its cytotoxicity at 24 h, 300 µM is -6%.

What about the “Concentration of brexpiprazole formed” value [1] of the same compound?
The value was 0 nM.

And the “Concentration of evaluation compound decreased” value [1]?
The value was 50 nM.

Which cytotoxicity at 24 h, 300 µM (in vitro) does the source give for CC(C)(CC(=O)O)CC(=O)OCOP(=O)([O-])OC[N+]1(CCCCOc2ccc3ccc(=O)[nH]c3c2)CCN(c2cccc3sccc23)CC1 [EX 71] here?
Its cytotoxicity at 24 h, 300 µM is -9%.

What about the “Concentration of brexpiprazole formed” value [1] of the same compound?
Its value is 0 nM.

What about the “Concentration of evaluation compound decreased” value [1] of the same compound?
The value was 100 nM.

For O=C(OCOP(=O)([O-])OC[N+]1(CCCCOc2ccc3ccc(=O)[nH]c3c2)CCN(c2cccc3sccc23)CC1)OCC1CCOCC1 [EX 142, (4-(benzo[b]thiophen-4-yl)-1-(4-((2-oxo-1,2-dihydroquinolin-7-yl)oxy)butyl)piperazin-1-ium-1-yl)methyl (((((tetrahydro-2H-pyran-4-yl)methoxy)carbonyl)oxy)methyl) phosphate], which cytotoxicity at 24 h, 300 µM (in vitro) is on record?
The cytotoxicity at 24 h, 300 µM was 8%.

What about the “Concentration of brexpiprazole formed” value [1] of the same compound?
Its value is 0 nM.

What about the “Concentration of evaluation compound decreased” value [1] of the same compound?
The value was -70 nM.

For COCCn1nc(C(=O)OCOP(=O)([O-])OC[N+]2(CCCCOc3ccc4ccc(=O)[nH]c4c3)CCN(c3cccc4sccc34)CC2)c2ccccc21 [EX 82, (4-(benzo[b]thiophen-4-yl)-1-(4-((2-oxo-1.2-dihydroquinolin-7-yl)oxy)butyl)piperazin-1-ium-1-yl)methyl (((1-(2-methoxyethyl)-1H-indazole-3-carbonyl)oxy)methyl) phosphate], which cytotoxicity at 24 h, 300 µM (in vitro) is on record?
The cytotoxicity at 24 h, 300 µM was -2%.

What about the “Concentration of brexpiprazole formed” value [1] of the same compound?
The value was 0 nM.

And the “Concentration of evaluation compound decreased” value [1]?
The value was 20 nM.
